Assay results: PMC2994021, “Isolation of cytoplasmic NADPH-dependent phenol hydroxylase and catechol-1,2-dioxygenase from Candida tropicalis yeast” (Interdisciplinary Toxicology, 2010)

System: T1, NADPH-dependent phenol hydroxylase
T1 construct: native enzyme purified from cytosol of phenol-grown yeast (DEAE-Sepharose, PEG 6000, Sepharose 4B), close to homogeneity
Test: HPLC of phenol consumption, Michaelis-Menten kinetics
Type: biochemical, Candida tropicalis
Details: with NADPH; same Km from catechol formation; read-out: apparent Km

Work on Oc1ccccc1 [phenol] yielded a Km of 450 µM.
